Active and inactive are the calls of the source. No cut-off for these calls is given here.
How the values were obtained:
[1] = Antioxidant activity in pH 7.4 phosphate buffer assessed as DPPH radical scavenging activity at 4 to 100 uM after 30 mins by spectrophotometric analysis (reference value: 0.811 +/- 0.02%); assay type: functional
[2] = Pro-oxidant activity in pH 7.4 potassium phosphate buffer assessed as reduction in CuCl2/ascorbic acid induced hydroxyl radical scavenging activity at > 66 uM in presence of deoxyribose by measuring deoxyribose degradation product formation after 20 mins by thiobarbituric acid based absorbance analysis
[3] = Antioxidant activity in pH 10 Tris-HCl buffer assessed as superoxide anion radical scavenging activity by measuring rate of epinephrine auto-oxidation by spectrophotometric analysis; assay type: functional
[4] = Reducing power of the compound assessed as reducing Fe3+ power at 80 uM using K3Fe(CN)6 in pH 6.6 phosphate buffer after 20 mins by spectrophotometric analysis
[5] = Antioxidant activity in pH 7.4 potassium phosphate buffer assessed as CuCl2/ascorbic acid induced hydroxyl radical scavenging activity at 66 uM in presence of deoxyribose after 20 mins by thiobarbituric acid based absorbance analysis (reference value: 0.617 +/- 0.02%); assay type: functional
[6] = Antioxidant activity in pH 7.4 potassium phosphate buffer assessed as CuCl2/ascorbic acid induced hydroxyl radical scavenging activity by measuring deoxyribose degradation product formation after 20 mins by thiobarbituric acid based absorbance analysis; assay type: functional
[7] = Antioxidant activity in pH 7.4 phosphate buffer assessed as H2O2 scavenging activity by measuring H2O2 decomposition at 1.34 to 10.72 uM by spectrophotometric analysis; assay type: functional
[8] = Antioxidant activity in pH 7.4 potassium phosphate buffer assessed as CuCl2/ascorbic acid induced hydroxyl radical scavenging activity by measuring trolox equivalent antioxidant capacity by measuring IC50 Trolox/IC50 test compound ratio in presence of deoxyribose by thiobarbituric acid based absorbance analysis; assay type: functional
[9] = Pro-oxidant activity in pH 10 Tris-HCl buffer assessed as reduction in superoxide anion radical scavenging activity by measuring rate of epinephrine auto-oxidation at 10.72 uM by spectrophotometric analysis
[10] = Antioxidant activity in pH 10 Tris-HCl buffer assessed as superoxide anion radical scavenging activity by measuring rate of epinephrine auto-oxidation at 8.04 uM by spectrophotometric analysis (reference value: 0.0186 +/- 0.004%); assay type: functional
[11] = Antioxidant activity in pH 10 Tris-HCl buffer assessed as superoxide anion radical scavenging activity by measuring rate of epinephrine auto-oxidation at 10.72 uM by spectrophotometric analysis (reference value: 0.0186 +/- 0.004%); assay type: functional
[12] = Antioxidant activity in pH 7.4 phosphate buffer assessed as DPPH radical scavenging activity after 30 mins by spectrophotometric analysis; assay type: functional

| Compound | Activity [1] [%] | Activity [2] | Activity [3] | Activity [4] | Activity [5] [%] | Activity [6] | IC50 [6] [µM] | Activity [7] | Ratio IC50 [8] | Activity [9] | Activity [10] [%] | Activity [11] [%] | IC50 [12] [µM] |
| --- | --- | --- | --- | --- | --- | --- | --- | --- | --- | --- | --- | --- | --- |
| CCOC(=O)c1c(-c2cc(OC)c(OC)c(OC)c2)cn2c1c(=O)oc1ccccc12 | < 14 | Active | Dose-dependent effect | inactive | 92 | Dose-dependent effect | 4.8 | inactive | 2.06 | Active | 83 |  |  |
| CCOC(=O)c1c(-c2ccc(C)cc2)cn2c1c(=O)oc1ccccc12 | < 14 | Active | Dose-dependent effect | Dose-dependent effect |  | Dose-dependent effect | 10.4 | inactive | 0.95 |  |  |  |  |
| COC(=O)c1c(-c2cccc(Cl)c2)cn2c1c(=O)oc1ccccc12 | < 14 | Active | Dose-dependent effect | inactive | 90 | Dose-dependent effect | 8.4 | inactive | 1.18 |  |  | 83 |  |
| Cc1c(C)c2c(c(C)c1O)CCC(C)(C(=O)O)O2 (stereo unspecified) [TROLOX] |  |  |  |  |  |  | 9.9 |  |  |  |  |  | 36.4 |
